Measured values taken from patent US10941121B2 (AZIENDA OSPEDALIERA UNIVERSITARIA SENESE, priority 2015, dated 2021).
pEC50, pIC50, pKi: −log10 of the molar value. Where two headings read alike, the source gives them in different places.

Experiments:
Lunet/HuH7 cells = experiment: Cytotoxicity, MTT method in LUNET cells; type: cell-based; settings: MMT method in LUNET cells; read-out: CC50 (μM) non-infected cells
Protocol: (§1) Toxicity (CC50) was analysed in the Lunet/HuH7 cells by the addition of 10 μL of MTT (3-(4,5-dimethylthiazol-2-yl)-2,5-diphenyltetrazolium bromide) per well. After 4 h of incubation at 37° C. in a humidified atmosphere with 5% CO2, the amount of formazan produced was quantified spectrophotometrically at 550/620 nm (C. Pannecouque et al, Nature protocol 2008; 3 (3): 427-434). […] These assays were done in duplicate.

[1] = system: Hepatitis C Virus (HCV) replicon system; experiment: HCV replicon system, luciferase method in LucUbiNeo-ET cells; settings: for EC50: read-out: EC50 (μM) HCV replicon system
[2] = Cytotoxicity, MTT method in LUNET cells; type: cell-based; settings: human; MMT method in LUNET cells; read-out: CC50 (μM) non-infected cells
Protocol: as §1

[3] = Cytotoxicity, MTT method in HuH7.5 cells; type: cell-based; settings: human, non-infected, read-out: HCV CC50
Protocol: After 4 h of incubation at 37° C. in a humidified atmosphere with 5% CO2, the amount of formazan produced was quantified spectrophotometrically at 550/620 nm (C. Pannecouque et al, Nature protocol 2008; 3 (3): 427-434). […] These assays were done in duplicate.

[4] = Parallel Artificial Membrane Permeability Assay (PAMPA); type: in vitro ADME; settings: for Papp at 5 h, 0.5 mM: PAMPA, read-out: PAMPA Papp *10^−6 (cm/s) GI; for PAMPA membrane retention (RM %): value in brackets in the PAMPA cell
Protocol: Parallel Artificial Membrane Permeability Assay (PAMPA). Donor solution (0.5 mM) was prepared by diluting 1 mM dimethylsulfoxide (DMSO) compound stock solution using phosphate buffer (pH 7.4, 0.025 M). Filters were coated with 5 μL of a 1% (w/v) dodecane solution of phosphatidylcholine prepared from CHCl3 solution 10% w/v, for intestinal permeability. Donor solution (150 μL) was added to each well of the filter plate. To each well of the acceptor plate were added […] (50% DMSO in phosphate buffer). All compounds were tested in three different plates on different days. The sandwich was incubated for 5 h at room temperature under gentle shaking. After the incubation time, the plates were separated, and samples were taken from both receiver and donor sides and analyzed using LC with UV detection at 280 nm.
LC analysis were performed with a Varian Prostar HPLC system (Varian Analytical Instruments, USA) equipped with a binary pump with a manual injection valve and model Prostar 325 UV-VIS Detector.
Permeability (Papp) for PAMPA was calculated according to the following equation, obtained from Wohnsland and Faller and Sugano et al. equation with some modification in order to obtain permeability values in cm s^−1,
where VA is the volume in the acceptor well, VD is the volume in the donor well (cm^3), A is the “effective area” of the membrane (cm^2), t is the incubation time (s) and r the ratio between drug concentration in the acceptor and equilibrium concentration of the drug in the total volume (VD+VA). Drug concentration is estimated by using the peak area integration.
Membrane retentions (%) were calculated according to the following equation: […]
where r is the ratio between drug concentration in the acceptor and equilibrium concentration, D, A, and Eq represented drug concentration in the donor, acceptor and equilibrium solution, respectively.

Water Solubility Assay = type: physicochemical; settings: thermodynamic from solid
Protocol: Water Solubility Assay. Each solid compound (1 mg) was added to 1 mL of water. The samples were shaked in a shaker bath at room temperature for 24-36 h. The suspensions were filtered through a 0.45 μm nylon filter (Acrodisc), and the solubilized compound determined by LC-MS-MS assay. For each compound the determination was performed in triplicate.
For the quantification was used an LC-MS system consisted of a Varian apparatus (Varian Inc) including a vacuum solvent degassing unit, two pumps (212-LC), a Triple Quadrupole MSD (Mod. 320-LC) mass spectrometer with ES interface and Varian MS Workstation System Control Vers. 6.9 software. […] The flow rate was 0.2 mL min^−1 and injection volume was 5 μL. The instrument operated in positive mode and parameters were: detector 1850 V, drying gas pressure 25.0 psi, desolvation temperature 300.0° C., nebulizing gas 40.0 psi, needle 5000 V and shield 600 V. Nitrogen was used as nebulizer gas and drying gas. Collision induced dissociation was performed using Argon as the collision gas at a pressure of 1.8 mTorr in the collision cell.

DDX3 Helicase [5] = target: T1, DDX3 Helicase (Homo sapiens, UniProt O00571); experiment: biochemical
[6] = Cytotoxicity in Huh7 cells, nuclei counts; settings: human
[7] = system: HCV Jc1 (genotype 2a virus); experiment: HCV infectious cell culture system, NS5A immunostaining; settings: Hepatitis C virus, Huh7.5, read-out: HCV EC50
DDX3 Helicase [8] = target: T1, DDX3 Helicase; settings: read-out: ID50 (μM) against DDX3 Helicase; n.a. = compound not active
in vitro = settings: hamster
JEV strain (NJ2008) = experiment: JEV infectious cell culture system, plaque formation assay in BHK-21 cells; settings: Japanese encephalitis virus, BHK-21, read-out: JEV EC50
[9] = Cytotoxicity in PBMC, CellTiter 96 MTS viability assay; type: cell-based; settings: human, human primary PBMCs
[10] = system: HIV-1 wild-type reference strain NL4-3; experiment: HIV-1 phenotypic assay, MT-2 cells then TZM-bl cells, luciferase; type: cell-based; settings: Human immunodeficiency virus 1, NL43; first cycle in MT-2 cells, additional round in TZM-bl cells
[11] = system: human liver microsome (HLM); experiment: Microsomal Stability Assay; settings: human liver microsomes, 37 °C, 60 min, compound 50 μM; percentage of not metabolized compound
[12] = Cytotoxicity in the JEV cell culture system; settings: hamster
HIV (PBMC) = experiment: HIV infectious cell culture system in PBMC, HIV-1 RNA in supernatant; settings: Human immunodeficiency virus 1, PBMC, 72 h, read-out: EC50 HIV (PBMC) 72 h
PRRSV = PRRSV infectious cell culture system, plaque formation assay in MARC-145 cells; type: cell-based; settings: Porcine reproductive and respiratory syndrome virus, MARC145; viral titre by plaque formation assay in MARC-145 cells
Protocol: According to the requirement of different experiments, MARC-145 cells were either infected with PRRSV at MOIs of 0.1, 1 or 10, or mock infected with phosphate-buffered saline (PBS). After 1 h incubation at 37° C., unbounded viruses were removed by washing thrice with PBS and cultured in DMEM supplemented with 8% FBS at 37° C. for various lengths of time. For the autophagy induction and inhibition experiments, MARC-145 cells were pretreated with varying concentrations of rapamycin or 3-MA for 4 h before viral infection. MARC-145 cells were then infected with PRRSV at MOI of 1. After 1 h incubation at 37° C., unbounded viruses were removed by washing thrice with PBS and cultured in DMEM supplemented with 2% FBS containing varying concentrations of compound, 3-MA or the corresponding amount of dimethyl sulfoxide (DMSO, control) at 37° C. for 24 h.

HIV = settings: EI01D; read-out: EC50 inhibition of viral load of PBMCs infected with HIV; cited from earlier work
DDX3 = DDX3 (Homo sapiens, UniProt O00571); settings: literature values; cited from earlier work
HIV-1 (IIIB) = settings: read-out: EC50 replication of HIV-1 (IIIB) in MT4-cells; cited from earlier work
MOLT-4 T-lymphocytic = settings: cited from earlier work
[13] = phosphatidylcholine in dodecane, pH 7.4, 5 h, room temperature
[14] = experimental aqueous solubility, read-out: LogS (converted)
[15] = room temperature, 24-36 h, read-out: Aq. Solub.
[16] = DENV CC50, Huh7 cells, DENV experiment
[17] = WNV CC50, Huh7 cells, WNV experiment

T1 sequence (O00571 whole entry): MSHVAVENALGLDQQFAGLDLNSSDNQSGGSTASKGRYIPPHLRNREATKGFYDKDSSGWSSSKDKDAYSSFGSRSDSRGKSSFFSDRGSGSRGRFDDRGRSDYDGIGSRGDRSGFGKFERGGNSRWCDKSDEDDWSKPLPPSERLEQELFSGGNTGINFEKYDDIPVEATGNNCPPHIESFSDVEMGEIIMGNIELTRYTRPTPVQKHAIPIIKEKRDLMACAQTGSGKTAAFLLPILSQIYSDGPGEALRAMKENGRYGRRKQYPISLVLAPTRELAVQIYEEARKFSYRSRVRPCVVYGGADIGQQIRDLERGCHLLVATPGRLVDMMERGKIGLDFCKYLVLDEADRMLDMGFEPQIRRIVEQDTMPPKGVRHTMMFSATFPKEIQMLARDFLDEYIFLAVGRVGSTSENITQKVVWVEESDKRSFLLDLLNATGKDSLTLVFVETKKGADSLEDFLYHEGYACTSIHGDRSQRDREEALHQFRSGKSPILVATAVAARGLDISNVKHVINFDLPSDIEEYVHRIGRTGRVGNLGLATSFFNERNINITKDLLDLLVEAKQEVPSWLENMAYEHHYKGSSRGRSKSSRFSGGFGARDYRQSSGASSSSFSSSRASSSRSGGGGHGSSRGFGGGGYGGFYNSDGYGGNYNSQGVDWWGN
Chain of DDX3 (O00571 whole entry): as above

Structure (SMILES) | CC50 [2] [µM] | Papp at 5 h, 0.5 mM [4, 13] [×10⁻⁶ cm/s] | PAMPA membrane retention (RM %) [4] [%] | solubility (Water Solubility Assay; [14]) [µM] | solubility (Water Solubility Assay; [15]) [µg/mL] | pIC50 (DDX3 Helicase [5]) | activity against HCV, in words [1] | EC50 ([1]; Hepatitis C virus, 48 h) [µM] | IC50 (DDX3 Helicase [8]) [µM] | pEC50 (JEV strain (NJ2008)) | CC50 at 72 h [9] [µM] | Metabolic stability (Sability %) [11] [%] | CC50 [12] [µM] | pEC50 (HIV (PBMC)) | also measured
CCCCCCc1cn(-c2ccc(NC(=O)Nc3ccccc3C(F)(F)F)cc2)nn1 [Compound 8d] |  |  |  |  |  |  |  |  |  |  |  |  |  |  | CC50 (Lunet/HuH7 cells): 290 µM; EC50 ([1]; luciferase method in LucUbiNeo-ET cells, 2 days): 0.67 µM
Cc1ccccc1NC(=O)Nc1ccc(-n2cc(CCC(C)C)nn2)cc1 [Compound 20b, 1-(4-(4-isopentyl-1H-1,2,3-triazol-1-yl)phenyl)-3-o-tolylurea] | 189 | 1.93 | 26.7 | < 0.00251 | < 0.001 | 6.30 | best activity | 0.8 |  |  |  |  |  |  | CC50 [3]: 209 µM; CC50 at 48 h [6, 16]: 40.4 µM; CC50 at 48 h [6, 17]: 62.3 µM; pEC50 [7]: 4.52
CCCCc1cn(-c2ccc(NC(=O)Nc3ccccc3C(F)(F)F)cc2)nn1 [Compound 22a, 1-(4-(4-butyl-1H-1,2,3-triazol-1-yl)phenyl)-3-(2-(trifluoromethyl)phenyl)urea] | 200 |  | 23.9 | 0.0372 | 0.107 | 6.52 | best activity | 0.3 |  |  |  |  |  |  | CC50 [3]: 94.4 µM; PAMPA Papp *10^−6 (cm/s) GI [4, 13]: 7.47 *10^−6 cm/s; CC50 at 48 h [6, 16]: 178 µM; CC50 at 48 h [6, 17]: 145 µM; pEC50 [7]: 6.22
CCOP(=O)(OCC)OCCc1cn(-c2ccc(NC(=O)Nc3ccccc3C)cc2)nn1 [Compound 36, diethyl (2-(1-(4-(3-(o-tolyl)ureido)phenyl)-1H-1,2,3-triazol-4-yl)ethyl) phosphate] | > 150 |  |  |  |  |  |  | 75 | 0.9 | 4.68 |  |  |  |  | CC50 (in vitro): > 50 µM
CCCCn1nnc(-c2ccc(NC(=O)Nc3ccccc3C)cc2)n1 [Compound 49, 1-(4-(2-butyl-2H-tetrazol-5-yl)phenyl)-3-(o-tolyl)urea] | 11.2 | 7.57 | 24.8 | < 0.00316 | < 0.001 | 5.31 |  | 7.16 |  | 5.15 | > 1000 | 95.6 | > 50 | 5.02 | CC50 at 24 h [9]: > 1000 µM; CC50 at 48 h [9]: > 1000 µM; pEC50 [10]: 5.28
CCCCc1cn(-c2cccc(S(=O)(=O)Nc3ccccc3C(F)(F)F)c2)nn1 [Compound 64d, 3-(4-butyl-1H-1,2,3-triazol-1-yl)-N-(2-(trifluoromethyl)phenyl)benzenesulfonamide] |  |  |  |  |  |  |  |  | 0.4 | 5.17 | 198 | 99 | > 50 | 4.51 | CC50 at 24 h [9]: 2130 µM; CC50 at 48 h [9]: 332 µM; pEC50 (PRRSV): 4.52; pEC50 [10]: 4.90
CCCCc1cn(-c2ccc(NC(=O)Nc3ccccc3C(F)(F)F)cc2F)nn1 [Compound 81, 1-(4-(4-butyl-1H-1,2,3-triazol-1-yl)-3-fluorophenyl)-3-(2-(trifluoromethyl)phenyl)urea] | 74.2 | 7.22 | 30.4 | 0.398 | 80.1 | 6.00 |  | 1.99 |  |  |  | 94 |  |  | 
Cc1ccccc1NC(=O)Nc1cccc([N+](=O)[O-])c1 [EI01D, reference compound] | 86 |  |  |  |  |  | completely inactive | > 86 | 1 | 5.00 | 100 |  | > 50 | 5.00 | pEC50 (HIV): 5.00
O=C(CN1C(=O)/C(=C/c2cccc(Br)c2)SC1=S)Nc1ccccc1O [FE15] |  |  |  |  |  |  |  |  |  |  |  |  |  |  | pKi (DDX3): 5.27; pEC50 (HIV-1 (IIIB)): 4.06; CC50 (MOLT-4 T-lymphocytic): > 200 µM
